Results as given in ChEMBL document CHEMBL1201862, “PubChem BioAssay data set” (2004).
Activity calls are given as the source filed them. The rule behind the calls is not given here.

Target: T1, Exodeoxyribonuclease V (Escherichia coli (strain K12), UniProt P04993+P07648+P08394)
T1 sequence (P04993 whole entry): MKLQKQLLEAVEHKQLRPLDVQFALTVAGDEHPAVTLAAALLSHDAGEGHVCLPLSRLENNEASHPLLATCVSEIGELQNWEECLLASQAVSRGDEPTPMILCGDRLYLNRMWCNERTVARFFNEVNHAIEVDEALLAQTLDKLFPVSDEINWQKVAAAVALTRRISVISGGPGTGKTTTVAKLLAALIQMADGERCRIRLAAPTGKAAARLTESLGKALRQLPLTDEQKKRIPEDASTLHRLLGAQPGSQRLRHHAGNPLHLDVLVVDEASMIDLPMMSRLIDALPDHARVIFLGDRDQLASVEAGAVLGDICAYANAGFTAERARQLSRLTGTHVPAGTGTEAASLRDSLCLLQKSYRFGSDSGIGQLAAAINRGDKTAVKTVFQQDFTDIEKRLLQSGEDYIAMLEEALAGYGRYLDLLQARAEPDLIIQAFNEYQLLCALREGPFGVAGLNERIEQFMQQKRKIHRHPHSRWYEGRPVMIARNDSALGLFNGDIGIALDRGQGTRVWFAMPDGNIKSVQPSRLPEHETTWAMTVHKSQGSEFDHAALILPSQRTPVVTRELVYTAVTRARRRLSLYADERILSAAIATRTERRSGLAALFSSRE
T1 sequence (P07648 whole entry): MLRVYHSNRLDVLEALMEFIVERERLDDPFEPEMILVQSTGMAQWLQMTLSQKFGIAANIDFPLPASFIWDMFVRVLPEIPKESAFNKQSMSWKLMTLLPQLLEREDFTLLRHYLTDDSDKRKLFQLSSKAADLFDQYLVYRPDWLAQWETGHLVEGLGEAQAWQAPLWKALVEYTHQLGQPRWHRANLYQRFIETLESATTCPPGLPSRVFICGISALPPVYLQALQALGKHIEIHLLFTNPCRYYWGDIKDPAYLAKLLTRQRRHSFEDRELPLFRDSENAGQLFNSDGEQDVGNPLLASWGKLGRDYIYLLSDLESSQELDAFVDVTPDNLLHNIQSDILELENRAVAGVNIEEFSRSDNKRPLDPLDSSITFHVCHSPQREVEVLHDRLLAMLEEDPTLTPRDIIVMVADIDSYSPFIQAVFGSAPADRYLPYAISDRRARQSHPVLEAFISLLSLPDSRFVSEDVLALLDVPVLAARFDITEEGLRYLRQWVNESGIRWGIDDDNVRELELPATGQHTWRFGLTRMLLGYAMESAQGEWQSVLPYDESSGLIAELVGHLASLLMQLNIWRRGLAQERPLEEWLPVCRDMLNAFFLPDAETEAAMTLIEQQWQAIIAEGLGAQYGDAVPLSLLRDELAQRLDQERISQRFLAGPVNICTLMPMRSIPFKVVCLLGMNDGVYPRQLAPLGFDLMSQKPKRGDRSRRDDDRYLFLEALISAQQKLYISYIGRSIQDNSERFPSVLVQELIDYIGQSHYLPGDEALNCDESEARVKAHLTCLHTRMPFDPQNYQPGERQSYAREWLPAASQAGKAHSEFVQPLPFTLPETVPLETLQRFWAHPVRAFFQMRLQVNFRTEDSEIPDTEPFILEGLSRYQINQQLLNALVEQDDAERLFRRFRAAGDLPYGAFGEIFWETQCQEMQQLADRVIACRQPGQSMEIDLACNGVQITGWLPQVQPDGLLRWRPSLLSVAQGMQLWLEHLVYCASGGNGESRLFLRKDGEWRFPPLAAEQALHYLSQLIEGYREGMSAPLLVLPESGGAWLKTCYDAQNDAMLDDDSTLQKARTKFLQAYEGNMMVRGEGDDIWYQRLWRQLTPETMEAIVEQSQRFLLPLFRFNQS
T1 sequence (P08394 whole entry): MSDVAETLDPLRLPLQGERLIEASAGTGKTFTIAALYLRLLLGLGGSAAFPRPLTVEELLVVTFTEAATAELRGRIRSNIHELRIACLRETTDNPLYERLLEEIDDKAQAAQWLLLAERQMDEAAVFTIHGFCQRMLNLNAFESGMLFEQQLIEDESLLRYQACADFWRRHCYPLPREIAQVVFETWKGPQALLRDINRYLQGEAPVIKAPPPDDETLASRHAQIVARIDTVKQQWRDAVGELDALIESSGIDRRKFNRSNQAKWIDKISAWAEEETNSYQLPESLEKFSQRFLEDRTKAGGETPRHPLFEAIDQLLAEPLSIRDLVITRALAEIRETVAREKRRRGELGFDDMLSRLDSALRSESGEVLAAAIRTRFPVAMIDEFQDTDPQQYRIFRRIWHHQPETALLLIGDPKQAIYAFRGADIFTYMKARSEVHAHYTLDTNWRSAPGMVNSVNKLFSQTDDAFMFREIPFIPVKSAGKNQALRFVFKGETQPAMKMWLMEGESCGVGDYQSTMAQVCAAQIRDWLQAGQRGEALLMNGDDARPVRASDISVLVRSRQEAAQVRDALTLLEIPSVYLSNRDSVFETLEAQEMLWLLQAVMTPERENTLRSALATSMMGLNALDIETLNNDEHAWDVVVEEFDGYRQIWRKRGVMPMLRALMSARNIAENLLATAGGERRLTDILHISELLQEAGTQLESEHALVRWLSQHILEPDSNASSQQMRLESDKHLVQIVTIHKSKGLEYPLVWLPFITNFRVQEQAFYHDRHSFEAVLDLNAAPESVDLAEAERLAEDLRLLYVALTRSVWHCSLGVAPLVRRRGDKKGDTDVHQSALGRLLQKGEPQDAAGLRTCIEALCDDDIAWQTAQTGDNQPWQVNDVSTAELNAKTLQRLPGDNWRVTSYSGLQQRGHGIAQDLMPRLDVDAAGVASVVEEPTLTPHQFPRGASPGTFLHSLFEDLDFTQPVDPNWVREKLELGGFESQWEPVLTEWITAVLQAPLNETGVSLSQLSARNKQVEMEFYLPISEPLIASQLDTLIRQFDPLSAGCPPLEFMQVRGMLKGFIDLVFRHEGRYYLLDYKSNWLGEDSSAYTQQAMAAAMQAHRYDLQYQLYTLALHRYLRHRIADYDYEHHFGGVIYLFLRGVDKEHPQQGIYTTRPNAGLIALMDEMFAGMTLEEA
Test: RecBCD inhibition via phage-restricted bacterial growth – absorbance, V66 E. coli, mutant T4 phage, counter-screen for AddAB inhibitor project, dose response (AID 492957)
Format: functional, cell-based, Escherichia coli str. K-12 substr. MG1655

## CCCC(=O)NC(c1ccc(C(C)C)cc1)c1ccc2cccnc2c1O (stereo unspecified)
  IC50: > 119 µM (inactive)
